Results reported in patent publication US20250040554A1, “NEW USES OF PHENMEDIPHAM AND HERBICIDAL COMBINATIONS COMPRISING PHENMEDIPHAM” (BAYER AKTIENGESELLSCHAFT, priority 2021, published 2025).

Columns and labels:
Assay type in all cases: in vivo
STEME=Stellaria media = experiment: Greenhouse weed control trial STEME; conditions: 25 DAA
Description: (§1) The respective (combinations of) materials were applied to weed plants in the greenhouse or in the field at the respective growth stage indicated hereinafter for the different weed species mentioned below. The respective (combinations of) active ingredients were also applied to corn, cotton and soybean crop plants, and the selectivity (damage) in these crop plants rated (assessed).
(§2) Visual scoring of the damage to the trial plants took place after the time mentioned in the respective Table—indicated in number of Days After Application (DAA). Damage and development of all above-ground parts of the respective plants was recorded. Visual rating was done on a percentage scale in relation to the untreated control (100%=all plants dead; 50%=green plant biomass reduced by 50%, and 0%=no discernible difference=like control plot).
(§3) The trials in the greenhouse were sprayed with an application volume of 300 L/ha with an automated track sprayer. The plots in the field were sprayed with an application volume of 140 L/ha with a hand held spray boom.
(§4) In greenhouse selectivity trials and trials herbicidal activity trials against weed plants were investigated in post-emergence application of the respective material(s).
(§5) Herbicidal activity against different weeds (undesired plants) was calculated as follows.
(§6) wherein • A, B=respective value in percent of active ingredient A at a dose rate of a g/ha, ingredient B at a dose rate of b g/ha • E^C=Expected value according to Colby (S. R. Colby; Weeds 15 (1967), 20-22) in % at a dose rate of a+b, each in g/ha • Δ=Difference (in %) between measured value E and expected value E^C (%) (measured value minus expected value)
(§7) • measured value E is greater than E^C:->synergism (+Δ) • measured value E is equal to E^C:->additive effect • measured value E is smaller than E^C:->antagonism (−Δ)
(§8) The weed control activity of different (combinations of) materials was investigated in greenhouse trials for the following weed species: • STEME=Stellaria media • ECHCG=Echinochloa crus-galli • BROTE=Bromus tectorum
(§9) Phenmedipham amd Mesotrione were applied at varying application rates (Dose Rate) to the weed plant species STEME, ECHCG and BROTE. The results are shown in Tables 2a to 2c as the % control when assessed 25 days after application (25 DAA).
(§10) In all the trials of Table Tables 2a to 2c Mero® (rapeseed oil methyl ester) was added to the respective spray mixture in an amount corresponding to 1 L/ha for PMP, 1 L/ha for MST, and 2 L/ha for mixtures of PMP+MST.

BROTE=Bromus tectorum = experiment: Greenhouse weed control trial BROTE; conditions: 25 DAA
Description: as §1, §2, §3, §4, §5, §6, §7, §8, §9, §10

AMAVI=Amaranthus viridis = experiment: Weed control field trial AMAVI
Description: as §1, §2, §3, §6
The growth stages of the different weed species are indicated according to the BBCH monograph “Growth stages of mono- and dicotyledonous plants”, 2nd edition, 2001, ed. Uwe Meier, Federal Biological Research Centre for Agriculture and Forestry (Biologische Bundesanstalt für Land und Forstwirtschaft).
After the harmful plants had emerged, they were treated, at the respective growth stage indicated, with the respective materials as indicated at a water application rate of 140 L/ha.
After the treatment (21 or 35 days after application of the respective material), the herbicidal activity of respective material was scored visually at the same time by comparing the differently treated plots with the untreated control plots. The score figures of the different plots were averaged.
(§11) The dose rates of herbicidal ingredients used in each case are indicated for the respective active ingredient and refer to the amount of active ingredient per hectare (g/ha).
The weed control activity of different (combinations of) herbicidal active ingredients was investigated in field trials for the following weed species: • AMAVI=Amaranthus viridis • IPOAO=Ipomoea aristolochiaefolia • EPHHL=Euphorbia heterophylla • BIDPI=Bidens pilosa • BRADC=Brachiaria decumbens • ELEIN=Eleusine indica • CCHEC=Cenchrus echinatus
The growth stage of AMAVI was BBCH 13, the growth stage of IPOAO was BBCH 15, the growth stage of EPHHL was BBCH 13, the growth stage of BIDPI was BBCH 14, the growth stage of BRADC was BBCH 23, the growth stage of ELEIN was BBCH 11 and the growth stage of CCHEC was BBCH 12 at the time of application of the respective material.
Phenmedipham and Mesotrione were applied at varying application rates (Dose Rate) to the different species of weed plants. The results are shown in Tables 3a to 3e as the % control when assessed 21 and 35 days after application (DAA), respectively.
In all the trials of Tables 3a to 3e Mero® (rapeseed oil methyl ester) was added to the respective spray mixture in an amount corresponding to 1 L/ha for PMP, 1 L/ha for MST, and 2 L/ha for mixtures of PMP+MST.

[1] = tested on: AMARE=Amaranthus retroflexus; experiment: Weed control field trial AMARE; conditions: 15 DAA
Description: as §1, §2, §6
(§12) After the harmful plants had emerged, they were treated, at the respective growth stage indicated, with the respective materials as indicated at a water application rate of 187 L/ha.
(§13) After the treatment (15 days after the treatment), the herbicidal activity of respective material was scored visually at the same time by comparing the differently treated plots with the untreated control plots. The score figures of the different plots were averaged.
as §11
(§14) The weed control activity of different (combinations of) herbicidal active ingredients was investigated in field trials for the following weed species: • AMARE=Amaranthus retroflexus • KCHSC=Kochia scoparia • PANRA=Panicum ramosum
(§15) The growth stage of AMARE was BBCH 19, the growth stage of KCHSC was BBCH 19 and the growth stage of PANRA was BBCH 22 at the time of application of the respective material.
(§16) Phenmedipham and the respective aroylcyclohexanedione herbicide were applied at varying application rates (Dose Rate) to the different species of weed plants. The results are shown in Tables 4a to 4d as the % control when assessed 15 days after application (DAA), respectively.
(§17) In all the trials of Tables 4a to 4d Mero® (rapeseed oil methyl ester) was added to the respective spray mixture in an amount corresponding to 1 L/ha for PMP, 1 L/ha for the respective aroylcyclohexanedione herbicide, and 2 L/ha for mixtures of PMP+the respective aroylcyclohexanedione herbicide.

KCHSC=Kochia scoparia = experiment: Weed control field trial KCHSC; conditions: 15 DAA
Description: as §1, §2, §6, §12, §13, §11, §14, §15, §16, §17

PANRA=Panicum ramosum = experiment: Weed control field trial PANRA; conditions: 15 DAA
Description: as §1, §2, §6, §12, §13, §11, §14, §15, §16, §17

CS(=O)(=O)c1ccc(C(=O)C2C(=O)CCCC2=O)c([N+](=O)[O-])c1 [MST, 2-[4-(methylsulfonyl)-2-nitrobenzoyl]cyclohexane-1,3-dione]
% control STEME (STEME=Stellaria media; 12.5 g/ha): 89% | % control STEME (STEME=Stellaria media; 25 g/ha): 99% | % control STEME (STEME=Stellaria media; 50 g/ha): 99% | % control STEME (STEME=Stellaria media; 75 g/ha): 99% | % control BROTE (BROTE=Bromus tectorum; 12.5 g/ha): 30% | % control BROTE (BROTE=Bromus tectorum; 25 g/ha): 30% | % control BROTE (BROTE=Bromus tectorum; 50 g/ha): 35% | % control BROTE (BROTE=Bromus tectorum; 75 g/ha): 40% | % control AMAVI (AMAVI=Amaranthus viridis; 25 g/ha, 21 DAA): 10% | % control AMAVI (AMAVI=Amaranthus viridis; 25 g/ha, 35 DAA): 10% | % control AMAVI (AMAVI=Amaranthus viridis; 50 g/ha, 21 DAA): 10% | % control AMAVI (AMAVI=Amaranthus viridis; 50 g/ha, 35 DAA): 10% | % control AMARE ([1]; 20 g/ha): 25% | % control AMARE ([1]; 40 g/ha): 30% | % control AMARE ([1]; 60 g/ha): 40% | % control AMARE ([1]; 80 g/ha): 45% | % control AMARE ([1]; 100 g/ha): 50% | % control KCHSC (KCHSC=Kochia scoparia; 20 g/ha): 40% | % control KCHSC (KCHSC=Kochia scoparia; 40 g/ha): 45% | % control KCHSC (KCHSC=Kochia scoparia; 60 g/ha): 45% | % control KCHSC (KCHSC=Kochia scoparia; 80 g/ha): 45% | % control KCHSC (KCHSC=Kochia scoparia; 100 g/ha): 50% | % control PANRA (PANRA=Panicum ramosum; 20 g/ha): 15%

COC(=O)Nc1cccc(OC(=O)Nc2cccc(C)c2)c1 [PMP, 3-[(methoxyformyl)amino]phenyl (3-methylphenyl)carbamate]
% control STEME (STEME=Stellaria media; 12.5 g/ha): 0% | % control STEME (STEME=Stellaria media; 25 g/ha): 0% | % control STEME (STEME=Stellaria media; 50 g/ha): 0% | % control STEME (STEME=Stellaria media; 75 g/ha): 0% | % control STEME (STEME=Stellaria media; 100 g/ha): 0% | % control STEME (STEME=Stellaria media; 125 g/ha): 25% | % control STEME (STEME=Stellaria media; 300 g/ha): 77% | % control BROTE (BROTE=Bromus tectorum; 12.5 g/ha): 0% | % control BROTE (BROTE=Bromus tectorum; 25 g/ha): 0% | % control BROTE (BROTE=Bromus tectorum; 50 g/ha): 9% | % control BROTE (BROTE=Bromus tectorum; 75 g/ha): 0% | % control BROTE (BROTE=Bromus tectorum; 100 g/ha): 0% | % control BROTE (BROTE=Bromus tectorum; 125 g/ha): 0% | % control BROTE (BROTE=Bromus tectorum; 300 g/ha): 20% | % control AMAVI (AMAVI=Amaranthus viridis; 75 g/ha, 21 DAA): 0% | % control AMAVI (AMAVI=Amaranthus viridis; 75 g/ha, 35 DAA): 0% | % control AMAVI (AMAVI=Amaranthus viridis; 100 g/ha, 21 DAA): 0% | % control AMAVI (AMAVI=Amaranthus viridis; 100 g/ha, 35 DAA): 0% | % control AMAVI (AMAVI=Amaranthus viridis; 125 g/ha, 21 DAA): 0% | % control AMAVI (AMAVI=Amaranthus viridis; 125 g/ha, 35 DAA): 0% | % control AMAVI (AMAVI=Amaranthus viridis; 250 g/ha, 21 DAA): 0% | % control AMAVI (AMAVI=Amaranthus viridis; 250 g/ha, 35 DAA): 0% | % control AMARE ([1]; 150 g/ha): 0% | % control AMARE ([1]; 300 g/ha): 5% | % control KCHSC (KCHSC=Kochia scoparia; 150 g/ha): 0% | % control KCHSC (KCHSC=Kochia scoparia; 300 g/ha): 5% | % control PANRA (PANRA=Panicum ramosum; 150 g/ha): 0% | % control PANRA (PANRA=Panicum ramosum; 300 g/ha): 5%
